#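 Each compound was tested at five concentrations against cells in 96-well plates for 48 hours. TGI: total growth inhibition.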
# Tests used:
# Experiment in all cases: NCI tumour cell line growth inhibition, 48 h
# SN12C renal = test system: SN12C renal
# MALME-3M melanoma = test system: MALME-3M melanoma
# OVCAR-3 ovarian = test system: OVCAR-3 ovarian
# SK-OV-3 ovarian = test system: SK-OV-3 ovarian
# TK-10 renal = test system: TK-10 renal
# MDA-MB-435 = test system: MDA-MB-435
# SR leukemia = test system: SR leukemia
# XF 498 CNS = test system: XF 498 CNS
# SF-295 CNS = test system: SF-295 CNS
# COLO 205 colon = test system: COLO 205 colon
# BT-549 breast = test system: BT-549 breast
# NCI-H226 lung = test system: NCI-H226 lung
# HCT-116 colon = test system: HCT-116 colon
# NCI-H522 lung = test system: NCI-H522 lung
# IGROV1 ovarian = test system: IGROV1 ovarian
# HS 578T breast = test system: HS 578T breast
# NCI-H23 lung = test system: NCI-H23 lung
# HOP-62 NSCLC = test system: HOP-62 NSCLC
# A498 renal = test system: A498 renal
# MDA-MB-231 breast = test system: MDA-MB-231 breast
# HCT-15 colon = test system: HCT-15 colon
# A549 NSCLC = test system: A549 NSCLC
# LOX IMVI melanoma = test system: LOX IMVI melanoma
# SNB-75 CNS = test system: SNB-75 CNS
# SF-268 CNS = test system: SF-268 CNS
# HT29 colon = test system: HT29 colon
# SW-620 colon = test system: SW-620 colon
# LXFL 529 NSCLC = test system: LXFL 529 NSCLC
# MOLT-4 leukemia = test system: MOLT-4 leukemia
# MCF7 breast = test system: MCF7 breast
# HOP-18 NSCLC = test system: HOP-18 NSCLC
# RPMI-8226 leukemia = test system: RPMI-8226 leukemia
# M19-MEL melanoma = test system: M19-MEL melanoma
# EKVX NSCLC = test system: EKVX NSCLC
# DMS 273 small cell lung = test system: DMS 273 small cell lung
# HL-60(TB) leukemia = test system: HL-60(TB) leukemia
# T-47D breast = test system: T-47D breast
# MDA-N = test system: MDA-N
# DLD-1 colon = test system: DLD-1 colon
# SF-539 CNS = test system: SF-539 CNS
# CAKI-1 renal = test system: CAKI-1 renal
# SK-MEL-2 melanoma = test system: SK-MEL-2 melanoma
# PC-3 prostate = test system: PC-3 prostate
# CCRF-CEM leukemia = test system: CCRF-CEM leukemia
# KM20L2 colon = test system: KM20L2 colon
# DU-145 prostate = test system: DU-145 prostate
# OVCAR-8 ovarian = test system: OVCAR-8 ovarian
# HOP-92 NSCLC = test system: HOP-92 NSCLC
# NCI/ADR-RES ovarian = test system: NCI/ADR-RES ovarian
# KM12 colon = test system: KM12 colon
# ACHN renal = test system: ACHN renal
# UACC-62 melanoma = test system: UACC-62 melanoma
# HCC-2998 colon = test system: HCC-2998 colon
# K-562 leukemia = test system: K-562 leukemia
# UO-31 renal = test system: UO-31 renal
# RXF 393 renal = test system: RXF 393 renal
# SNB-78 CNS = test system: SNB-78 CNS
# M14 melanoma = test system: M14 melanoma
# SK-MEL-5 melanoma = test system: SK-MEL-5 melanoma
# OVCAR-5 ovarian = test system: OVCAR-5 ovarian
# U251 CNS = test system: U251 CNS
# OVCAR-4 ovarian = test system: OVCAR-4 ovarian
# NCI-H460 lung = test system: NCI-H460 lung
# SNB-19 CNS = test system: SNB-19 CNS
# 786-0 renal = test system: 786-0 renal
# UACC-257 melanoma = test system: UACC-257 melanoma
# DMS 114 small cell lung = test system: DMS 114 small cell lung
# SK-MEL-28 melanoma = test system: SK-MEL-28 melanoma
smiles,measurement,setting,value
CCOC(=O)N1C/C(=C\c2ccccc2)C(=O)/C(=C/c2ccccc2)C1,TGI,SN12C renal,5.61 µM
same,TGI,MALME-3M melanoma,16.9 µM
same,TGI,OVCAR-3 ovarian,14.5 µM
same,TGI,SK-OV-3 ovarian,27.8 µM
same,TGI,TK-10 renal,26.4 µM
same,TGI,MDA-MB-435,5.8 µM
same,TGI,SR leukemia,4.05 µM
same,TGI,XF 498 CNS,26.6 µM
same,TGI,SF-295 CNS,10.1 µM
same,TGI,COLO 205 colon,11.6 µM
same,TGI,BT-549 breast,4.54 µM
same,TGI,NCI-H226 lung,12.3 µM
same,TGI,HCT-116 colon,2750 nM
same,TGI,NCI-H522 lung,7.44 µM
same,TGI,IGROV1 ovarian,11.7 µM
same,TGI,HS 578T breast,15.3 µM
same,TGI,NCI-H23 lung,11.4 µM
same,TGI,HOP-62 NSCLC,24.8 µM
same,TGI,A498 renal,34.2 µM
same,TGI,MDA-MB-231 breast,5.3 µM
same,TGI,HCT-15 colon,5.74 µM
same,TGI,A549 NSCLC,54.3 µM
same,TGI,LOX IMVI melanoma,3.63 µM
same,TGI,SNB-75 CNS,22.4 µM
same,TGI,SF-268 CNS,11.9 µM
same,TGI,HT29 colon,4.05 µM
same,TGI,SW-620 colon,3.7 µM
same,TGI,LXFL 529 NSCLC,12.4 µM
same,TGI,MOLT-4 leukemia,6 µM
same,TGI,MCF7 breast,> 20.9 µM
same,TGI,HOP-18 NSCLC,> 67.5 µM
same,TGI,RPMI-8226 leukemia,1770 nM
same,TGI,M19-MEL melanoma,3.22 µM
same,TGI,EKVX NSCLC,31.8 µM
same,TGI,DMS 273 small cell lung,6.44 µM
same,TGI,HL-60(TB) leukemia,4.3 µM
same,TGI,T-47D breast,> 31.6 µM
same,TGI,MDA-N,3.62 µM
same,TGI,DLD-1 colon,7.25 µM
same,TGI,SF-539 CNS,11 µM
same,TGI,CAKI-1 renal,4.51 µM
same,TGI,SK-MEL-2 melanoma,28.2 µM
same,TGI,PC-3 prostate,5.16 µM
same,TGI,CCRF-CEM leukemia,5.79 µM
same,TGI,KM20L2 colon,22.4 µM
same,TGI,DU-145 prostate,> 55.8 µM
same,TGI,OVCAR-8 ovarian,9.51 µM
same,TGI,HOP-92 NSCLC,22.4 µM
same,TGI,NCI/ADR-RES ovarian,36.6 µM
same,TGI,KM12 colon,4.55 µM
same,TGI,ACHN renal,10.6 µM
same,TGI,UACC-62 melanoma,6.51 µM
same,TGI,HCC-2998 colon,4.8 µM
same,TGI,K-562 leukemia,> 38.3 µM
same,TGI,UO-31 renal,12.4 µM
same,TGI,RXF 393 renal,10.3 µM
same,TGI,SNB-78 CNS,> 81.2 µM
same,TGI,M14 melanoma,6.69 µM
same,TGI,SK-MEL-5 melanoma,6.2 µM
same,TGI,OVCAR-5 ovarian,18.2 µM
same,TGI,U251 CNS,7.43 µM
same,TGI,OVCAR-4 ovarian,13.6 µM
same,TGI,NCI-H460 lung,42.4 µM
same,TGI,SNB-19 CNS,20.2 µM
same,TGI,786-0 renal,9.15 µM
same,TGI,UACC-257 melanoma,12.5 µM
same,TGI,DMS 114 small cell lung,14.5 µM
same,TGI,SK-MEL-28 melanoma,6.69 µM
Cc1cc2c(c(C(N)=O)c1C)-c1cccc(F)c1C2=O,TGI,SN12C renal,> 100 µM
same,TGI,MALME-3M melanoma,> 100 µM
same,TGI,OVCAR-3 ovarian,> 100 µM
same,TGI,SK-OV-3 ovarian,> 100 µM
same,TGI,TK-10 renal,> 100 µM
same,TGI,XF 498 CNS,> 100 µM
same,TGI,SF-295 CNS,> 100 µM
same,TGI,COLO 205 colon,> 100 µM
same,TGI,HCT-116 colon,> 100000 nM
same,TGI,NCI-H522 lung,> 100 µM
same,TGI,IGROV1 ovarian,> 100 µM
same,TGI,NCI-H23 lung,> 100 µM
same,TGI,HOP-62 NSCLC,> 100 µM
same,TGI,A498 renal,> 100 µM
same,TGI,HCT-15 colon,> 100 µM
same,TGI,A549 NSCLC,> 100 µM
same,TGI,LOX IMVI melanoma,> 100 µM
same,TGI,SNB-75 CNS,66.5 µM
same,TGI,SF-268 CNS,> 100 µM
same,TGI,HT29 colon,> 100 µM
same,TGI,SW-620 colon,> 100 µM
same,TGI,LXFL 529 NSCLC,> 100 µM
same,TGI,MOLT-4 leukemia,> 100 µM
same,TGI,RPMI-8226 leukemia,> 100000 nM
same,TGI,M19-MEL melanoma,> 100 µM
same,TGI,EKVX NSCLC,> 100 µM
same,TGI,DMS 273 small cell lung,> 100 µM
same,TGI,DLD-1 colon,> 100 µM
same,TGI,SF-539 CNS,> 100 µM
same,TGI,SK-MEL-2 melanoma,> 100 µM
same,TGI,CCRF-CEM leukemia,> 100 µM
same,TGI,KM20L2 colon,> 100 µM
same,TGI,OVCAR-8 ovarian,> 100 µM
same,TGI,HOP-92 NSCLC,> 100 µM
same,TGI,KM12 colon,> 100 µM
same,TGI,ACHN renal,> 100 µM
same,TGI,UACC-62 melanoma,> 100 µM
same,TGI,HCC-2998 colon,> 100 µM
same,TGI,K-562 leukemia,> 100 µM
same,TGI,UO-31 renal,> 100 µM
same,TGI,SNB-78 CNS,> 100 µM
same,TGI,M14 melanoma,> 100 µM
same,TGI,SK-MEL-5 melanoma,> 100 µM
same,TGI,OVCAR-5 ovarian,> 100 µM
same,TGI,U251 CNS,> 100 µM
same,TGI,OVCAR-4 ovarian,> 100 µM
same,TGI,NCI-H460 lung,> 100 µM
same,TGI,SNB-19 CNS,> 100 µM
same,TGI,786-0 renal,> 100 µM
same,TGI,UACC-257 melanoma,> 100 µM
same,TGI,DMS 114 small cell lung,> 100 µM
same,TGI,SK-MEL-28 melanoma,> 100 µM

# — PubChem BioAssay (NCI)
